Experimental data taken from patent US20230271969A1, “NITROGEN-CONTAINING FUSED RING DERIVATIVE INHIBITOR, PREPARATION METHOD THEREFOR AND USE THEREOF” (Shanghai Hansoh Biomedical Co., Ltd., priority 2020, published 2023).

Key:
NK3 receptors [1] = target: T1, NK3 receptors (Homo sapiens, UniProt P29371); assay: Calcium ion fluidity (FLIPR) in cells with stable expression of NK3 receptors; format: cell-based; details: calcium signal, antagonist mode, read-out: NK3R IC50 (nM) FLIPR
T1 construct: expressed in transfected cells
T1 sequence (P29371 1-465): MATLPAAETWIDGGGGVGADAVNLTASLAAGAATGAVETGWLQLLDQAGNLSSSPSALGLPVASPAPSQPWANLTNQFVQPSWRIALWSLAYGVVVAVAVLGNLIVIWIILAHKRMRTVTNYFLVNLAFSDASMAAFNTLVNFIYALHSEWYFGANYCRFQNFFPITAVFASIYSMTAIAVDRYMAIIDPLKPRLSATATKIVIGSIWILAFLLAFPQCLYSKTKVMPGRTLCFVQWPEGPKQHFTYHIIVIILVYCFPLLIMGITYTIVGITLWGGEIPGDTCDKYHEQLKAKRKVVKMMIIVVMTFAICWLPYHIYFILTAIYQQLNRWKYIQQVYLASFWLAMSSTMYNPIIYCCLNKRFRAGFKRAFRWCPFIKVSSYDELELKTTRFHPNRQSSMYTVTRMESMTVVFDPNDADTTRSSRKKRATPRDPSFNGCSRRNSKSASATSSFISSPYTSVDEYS
Text: Determination of the Effect of the Compounds of the Present Invention on Calcium Ion Fluidity in Cells with Stable Expression of NK3 Receptors
Experimental objective: The objective of this test example was to determine the inhibitory effect of the compounds on NK3 receptors.
Experimental Methods: • 1. […] Probenecid and BSA were freshly added on the day of the experiment. The buffers for the experiments included dye buffer, compound dilution buffer and the like. • 2. […] The culture medium was discarded, and 20 μL of dye was added. The cells were incubated at 37° C. in the dark for 60 min, and then the calcium signal was read. • 4. The antagonist was prepared before the experiments. […] The plate was transferred to FLIPR, and 6× concentration of the agonist compound was added at 5 μL/well. The values were read and the data were saved by using FLIPR. The total assay volume was 30 μL, comprising 20 μL/well of dye buffer, 5 μL/well of 5× concentration of the experimental compound, and 5 μL/well of 6× concentration of the agonist compound.
The calcium signal value was read by FLIPR. The output of each sampling time point in the experiment was calculated as the ratio of the signals at wavelengths of 340/510 nm to 380/510 nm. The maximum minus minimum value was calculated from the ratio signal curve. The IC50 value of the compound was calculated by fitting the data of inhibition rate percentage and ten concentrations to the parametric nonlinear logistic equation by using GraphPad prism.

NK3 receptors [2] = target: T1, NK3 receptors; assay: Antagonism of IP1 in HEK293 cells with stable expression of NK3; format: cell-based; details: agonist Senktide 3 nM, read-out: NK3R IC50 (nM) IP1
Experimental: Determination of the Effect of the Compounds of the Present Invention on IP1 in HEK293 Cells with Stable Expression of NK3
The objective of this test example was to determine the antagonism effect of the compounds on the activity of HEK293-NK3 cells.
3. Experimental Methods: • 1. […] HEK293-NK3 cell line was cultured in complete medium and seeded in the coated dishes at 37° C., 5% CO2 until 70%˜90% confluence. • 3. […] The cells were digested and resuspended in 1× Stimulation Buffer (IP-ONE Gq Kit), seeded into the 384-well cell culture plate (which contained the compound to be tested) at 5,000 cells/well/5 μL by using Multidrop Combi. The culture plate was centrifuged at 300 rpm at room temperature for 60 seconds, and then incubated at 37° C., 5% CO2 for 15 minutes. • 5. The cell culture plate was taken out from the CO2 incubator. […] The culture plate was centrifuged at 300 rpm at room temperature for 60 seconds, and then incubated at 37° C., 5% CO2 for 2 hours. • 6. The cell culture plate was taken out from the CO2 incubator. 5 μL of IP1 d2 reagent and then 5 μL of IP1 Tb Cryptate Antibody reagent were added by using Multidrop Combi. The culture plate was centrifuged at room temperature at 300 rpm for 60 seconds, and left to stand at room temperature for 1 hour. • 7. The plate was read by using EnVision Multilabel Reader, and data were collected at the same time.
The fluorescence signal ratio (Ratio) was read and collected by EnVision Multilabel Reader. According to the readings of the Low control (DMSO control) and High control (p)ositive compound) experimental groups, the antagonism percentage data were calculated as {% antagonism=(Ratio sample−Ratio low control)/(Ratio high control−Ratio low control)×100}.

SMILES | IC50 (NK3 receptors [1]) | IC50 (NK3 receptors [2])
[2H]c1cc(C(=O)N2CCn3c(-c4nc5ccc(F)cc5s4)nnc3[C@H]2C)ccc1F [Example 61, (R)-(3-(6-Fluorobenzo[d]thiazol-2-yl)-8-methyl-5,6-dihydro-[1,2,4]triazolo[4,3-a]pyrazin-7(8H)-yl)(4-fluorophenyl-3-d)methanone] | 78.9 nM | 108 nM
C[C@@H]1c2nnc(-c3nc4cc(F)ccc4s3)n2CCN1C(=O)c1ccc(Cl)c(Cl)c1 [Example 11, (R)-(3,4-Dichlorophenyl)(3-(5-fluorobenzo[d]thiazol-2-yl)-8-methyl-5,6-dihydro-[1,2,4]triazolo[4,3-a]pyrazin-7(8H)-yl)methanone] | 47.5 nM | 176 nM
[2H]c1cc(C(=O)N2CCn3c(-c4nc5ccc(Cl)cc5s4)nnc3[C@H]2C)ccc1Cl [Example 102, (R)-(3-(6-Chlorobenzo[d]thiazol-2-yl)-8-methyl-5,6-dihydro-[1,2,4]triazolo[4,3-a]pyrazin-7(8H)-yl)(4-chlorophenyl-3-d)methanone] | 32.5 nM | 16.4 nM
C[C@@H]1c2nnc(-c3nc(Br)ns3)n2CCN1C(=O)c1ccc(F)cc1 [Example 98] | 78.4 nM | 100 nM
C[C@@H]1c2nnc(-c3nc4ccc(F)cc4s3)n2CCN1C(=O)c1ccc(Cl)cc1 [Example 13, (R)-(4-Chlorophenyl)(3-(6-fluorobenzo[d]thiazol-2-yl)-8-methyl-5,6-dihydro-[1,2,4]triazolo[4,3-a]pyrazin-7(8H)-yl)methanone] | 71.6 nM | 131 nM
C[C@@H]1c2nnc(-c3nc4cc(F)ccc4s3)n2CCN1C(=O)c1ccc(Cl)cc1 [Example 10, (R)-(4-Chlorophenyl)(3-(5-fluorobenzo[d]thiazol-2-yl)-8-methyl-5,6-dihydro-[1,2,4]triazolo[4,3-a]pyrazin-7(8H)-yl)methanone] | 51.4 nM | 172 nM
C[C@@H]1c2nnc(-c3nc4cnc(Cl)cc4s3)n2CCN1C(=O)c1ccc(Cl)cc1 [Example 97, (R)-(4-Chlorophenyl)(3-(6-chlorothiazolo[4,5-c]pyridin-2-yl)-8-methyl-5,6-dihydro-[1,2,4]triazolo[4,3-a]pyrazin-7(8H)-yl)methanone] | 156 nM | 172 nM
C[C@@H]1c2nnc(-c3nc4ccc(F)cc4s3)n2CCN1C(=O)c1ccc(F)cc1 [Example 12, (R)-(3-(6-Fluorobenzo[d]thiazol-2-yl)-8-methyl-5,6-dihydro-[1,2,4]triazolo[4,3-a]pyrazin-7(8H)-yl)(4-fluorophenyl)methanone] | 37 nM | 39.3 nM
[2H]c1cc(C(=O)N2CCn3c(-c4nc5cc(Cl)c(F)cc5s4)nnc3[C@H]2C)ccc1F [Example 105, (R)-(3-(5-Chloro-6-fluorobenzo[d]thiazol-2-yl)-8-methyl-5,6-dihydro-[1,2,4]triazolo[4,3-a]pyrazin-7(8H)-yl)(4-fluorophenyl-3-d)methanone] | 268 nM | 108 nM
C[C@@H]1c2nnc(-c3nc4ccccc4s3)n2CCN1C(=O)c1ccc(Cl)c(Cl)c1 [Example 4, (R)-(3-(Benzo[d]thiazol-2-yl)-8-methyl-5,6-dihydro-[1,2,4]triazolo[4,3-a]pyrazin-7 (8H)-yl)(3,4-dichlorophenyl)methanone] | 61.3 nM | 94.3 nM
Cc1ccc2nc(-c3nnc4n3CCN(C(=O)c3ccc(F)cc3)[C@@H]4C)sc2c1 [Example 24, (R)-(4-Fluorophenyl)(8-methyl-3-(6-methylbenzo[d]thiazol-2-yl)-5,6-dihydro-[1,2,4]triazolo[4,3-a]pyrazin-7(8H)-yl)methanone] | 45.6 nM | 49.5 nM
Cc1ccc2nc(-c3nnc4n3CCN(C(=O)c3ccc(Cl)cc3)[C@@H]4C)sc2c1 [Example 25, (R)-(4-Chlorophenyl)(8-methyl-3-(6-methylbenzo[d]thiazol-2-yl)-5,6-dihydro-[1,2,4]triazolo[4,3-a]pyrazin-7(8H)-yl)methanone] | 58.4 nM | 47.8 nM
C[C@@H]1c2nnc(-c3nc4ccc(C#N)cc4s3)n2CCN1C(=O)c1ccc(F)cc1 [Example 21, (R)-2-(7-(4-Fluorobenzoyl)-8-methyl-5,6,7,8-tetrahydro-[1,2,4]triazolo[4,3-a]pyrazin-3-yl)benzo[d]thiazol-6-carbonitrile] | 123 nM | 28.2 nM
[2H]c1cc(C(=O)N2CCn3c(-c4nc5ccc(F)cc5s4)nnc3[C@H]2C)ccc1Cl [Example 101, (R)-(4-Chlorophenyl-3-d)(3-(6-fluorobenzo[d]thiazol-2-yl)-8-methyl-5,6-dihydro-[1,2,4]triazolo[4,3-a]pyrazin-7(8H)-yl)methanone] | 86.7 nM | 61 nM
C[C@@H]1c2nnc(-c3nc4ccc(Cl)cc4s3)n2CCN1C(=O)c1ccc(F)cc1 [Example 19, (R)-(3-(6-Chlorobenzo[d]thiazol-2-yl)-8-methyl-5,6-dihydro-[1,2,4]triazolo[4,3-a]pyrazin-7(8H)-yl)(4-fluorophenyl)methanone] | 10.9 nM | 15.6 nM
C[C@@H]1c2nnc(-c3nc(Cl)ns3)n2CCN1C(=O)c1cc(F)c(F)c(F)c1 [Example 58, (R)-(3-(3-Chloro-1,2,4-thiadiazol-5-yl)-8-methyl-5,6-dihydro-[1,2,4]triazolo[4,3-a]pyrazin-7(8H)-yl)(3,4,5-trifluorophenyl)methanone] | 183 nM | 84.1 nM
[2H]c1cc(C(=O)N2CCn3c(-c4nc5cc(F)c(F)cc5s4)nnc3[C@H]2C)ccc1Cl [Example 99, (R)-(4-Chlorophenyl-3-d)(3-(5,6-difluorobenzo[d]thiazol-2-yl)-8-methyl-5,6-dihydro-[1,2,4]triazolo[4,3-a]pyrazin-7(8H)-yl)methanone] | 56.2 nM | 23.3 nM
COc1ccc2nc(-c3nnc4n3CCN(C(=O)c3ccc(Cl)c(Cl)c3)[C@@H]4C)sc2c1 [Example 31, (R)-(3,4-Dichlorophenyl)(3-(6-methoxybenzo[d]thiazol-2-yl)-8-methyl-5,6-dihydro-[1,2,4]triazolo[4,3-a]pyrazin-7(8H)-yl)methanone] | 86.7 nM | 43.2 nM
[2H]C([2H])([2H])N(c1nsc(-c2nnc3n2CCN(C(=O)c2ccc(Cl)cc2)[C@@H]3C)n1)C([2H])([2H])[2H] [Example 107, (R)-(3-(3-(Bis(methyl-d3)amino)-1,2,4-thiadiazol-5-yl)-8-methyl-5,6-dihydro-[1,2,4]triazolo[4,3-a]pyrazin-7(8H)-yl)(4-chlorophenyl)methanone] | 184 nM | 80.5 nM
C[C@@H]1c2nnc(-c3nc4ccc(Cl)cc4s3)n2CCN1C(=O)c1ccc(Cl)cc1 [Example 20, (R)-(3-(6-Chlorobenzo[d]thiazol-2-yl)-8-methyl-5,6-dihydro-[1,2,4]triazolo[4,3-a]pyrazin-7(8H)-yl)(4-chlorophenyl)methanone] | 61 nM | 27.3 nM
C[C@@H]1c2nnc(-c3nc(N(C)C)ns3)n2CCN1C(=O)c1ccc(F)cc1 [Example 60, (R)-(3-(3-(Dimethylamino)-1,2,4-thiadiazol-5-yl)-8-methyl-5,6-dihydro-[1,2,4]triazolo[4,3-a]pyrazin-7(8H)-yl)(4-fluorophenyl)methanone] | 205 nM | 190 nM
